Test results: ChEMBL document CHEMBL1806441, “Discovery and synthesis of a new class of opioid ligand having a 3-azabicyclo[3.1.0]hexane core. An example of a 'magic methyl' giving a 35-fold improvement in binding” (Bioorg Med Chem Lett, 2011)
The source made the active and inactive calls. No cut-off for these calls is given here.

Legend:
[1] = Binding affinity to dog mu opioid receptor; parameters: species or system Canis lupus familiaris
[2] = Binding affinity to dog kappa opioid receptor; parameters: species or system Canis lupus familiaris
[3] = target: Mu-type opioid receptor (Homo sapiens, UniProt P35372); test: Displacement of [3H]DAMGO from human mu opioid receptor
[4] = Binding affinity to dog delta opioid receptor; parameters: species or system Canis lupus familiaris
[5] = test system: Mus musculus; test: Inhibition of morphine-induced antinociception in ICR mouse assessed as antagonism of morphine response to heat-induced tail flick at 10 mg/kg, sc preincubated for 15 mins before the addition of morphine assessed after 30 mins; type: functional; conditions: route subcutaneous
[6] = test system: Canis familiaris; test: Antipruritic activity in dog with flea allergy dermatitis at 2 mg/kg, po upto 12 hrs; type: functional, organism-based; parameters: dose 2 mg/kg; conditions: Canis lupus familiaris
[7] = test system: CHO; test: Genotoxicity in CHO cells by micronucleus assay; type: toxicity, cell-based, Cricetulus griseus; conditions: chinese hamster
[8] = target: Mu-type opioid receptor (Cavia porcellus, UniProt P97266); test: Antagonist activity at mu opioid receptor in guinea pig longitudinal muscle myenteric plexus assessed as inhibition of DAMGO-induced contraction after 10 mins; type: functional; conditions: read-out: pA2 (converted)
[9] = target: T1, Cytochrome P450 2D15 (Canis lupus familiaris, UniProt Q29473); test: Inhibition of dog CYP2D15; type: ADME
T1 sequence (Q29473 whole entry): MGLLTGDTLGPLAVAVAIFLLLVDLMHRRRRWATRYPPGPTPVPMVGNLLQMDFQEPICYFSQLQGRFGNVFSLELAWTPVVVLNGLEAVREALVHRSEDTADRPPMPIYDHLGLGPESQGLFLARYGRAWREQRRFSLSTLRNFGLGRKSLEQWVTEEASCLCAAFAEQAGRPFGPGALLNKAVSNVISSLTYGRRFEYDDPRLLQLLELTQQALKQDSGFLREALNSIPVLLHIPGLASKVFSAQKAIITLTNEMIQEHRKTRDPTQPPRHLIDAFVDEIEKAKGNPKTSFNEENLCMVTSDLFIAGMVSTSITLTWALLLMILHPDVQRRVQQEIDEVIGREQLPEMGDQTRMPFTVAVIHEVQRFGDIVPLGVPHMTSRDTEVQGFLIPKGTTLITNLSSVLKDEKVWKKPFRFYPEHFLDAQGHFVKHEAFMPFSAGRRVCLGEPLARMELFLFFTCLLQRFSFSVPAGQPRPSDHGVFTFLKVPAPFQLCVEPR

Sequence of Mu-type opioid receptor (Homo sapiens, UniProt P35372) (P35372 whole entry): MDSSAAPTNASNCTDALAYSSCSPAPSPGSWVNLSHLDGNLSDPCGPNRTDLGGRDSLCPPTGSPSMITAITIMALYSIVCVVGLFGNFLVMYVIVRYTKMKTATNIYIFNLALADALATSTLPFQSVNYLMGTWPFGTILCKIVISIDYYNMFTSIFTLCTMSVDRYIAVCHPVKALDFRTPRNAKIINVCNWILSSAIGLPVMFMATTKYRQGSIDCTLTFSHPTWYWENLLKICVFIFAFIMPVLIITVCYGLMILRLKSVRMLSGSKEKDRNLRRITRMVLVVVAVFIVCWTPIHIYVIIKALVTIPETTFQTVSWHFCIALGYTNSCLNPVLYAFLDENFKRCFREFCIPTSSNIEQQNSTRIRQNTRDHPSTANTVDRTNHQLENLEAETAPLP
Sequence of Mu-type opioid receptor (Cavia porcellus, UniProt P97266) (P97266 whole entry): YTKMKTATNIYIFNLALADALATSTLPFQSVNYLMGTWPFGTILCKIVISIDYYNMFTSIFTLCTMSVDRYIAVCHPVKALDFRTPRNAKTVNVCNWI

Row | SMILES | Ki [1] [nM] | Ki [2] [nM] | Ki [3] [nM] | Ki [4] [nM] | inhibition in vivo at 10 mg/kg [5] [%] | Activity [6] | Activity [7] | Kb [8] [nM] | inhibition (INH) [9]
1 | CS(=O)(=O)Nc1cccc([C@H]2[C@@H]3CN(CCCc4ccccc4)C[C@@H]32)c1 | 379 | 1580 | 168 | > 10000 | – | – | – | – | –
2 | C[C@]1(c2cccc(NS(C)(=O)=O)c2)[C@@H]2CN(CCCc3ccccc3)C[C@@H]21 | 4.1 | 94 | 4.79 | 183 | 89 | Active | Non-toxic | 10.7 | Active
